T/C data for 24 molecules are collected here from PubChem BioAssay AID330 (DTP/NCI, 2004).

The assay relates to P388 leukemia ip, CD2F1 mice, survival T/C. Put plainly: NCI In Vivo Anticancer Drug Screen. Data for tumor model P388 Leukemia (intraperitoneal) in CD2F1 (CDF1) mice. The settings on record: endpoint: median survival time, higher = longer survival. The procedure, abridged: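 Mice carrying the transplanted tumor received test compound or vehicle. Survival was recorded in each group, and the value is the treated-group measurement divided by that of the vehicle-treated control group.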

The mark [1] stands for this setting: dose: 60.0 mg/kg/injection, schedule: Q01DX005 (ip), vehicle: saline.
[2] abbreviates: dose: 120.0 mg/kg/injection, schedule: Q01DX005 (ip), vehicle: saline.
Where [3] appears, read: dose: 240.0 mg/kg/injection, schedule: Q01DX005 (ip), vehicle: saline.
Setting [4] is: dose: 50.0 mg/kg/injection, schedule: Q01DX005 (ip), vehicle: Klucel (hydroxypropylcellulose) (HPC).
Setting [5] is: dose: 100.0 mg/kg/injection, schedule: Q01DX005 (ip), vehicle: Klucel (hydroxypropylcellulose) (HPC).
Where [6] appears, read: dose: 200.0 mg/kg/injection, schedule: Q01DX005 (ip), vehicle: Klucel (hydroxypropylcellulose) (HPC).
Setting [7] is: dose: 12.5 mg/kg/injection, schedule: Q01DX009 (ip), vehicle: saline with Tween-80.
Setting [8] is: dose: 50.0 mg/kg/injection, schedule: Q01DX009 (ip), vehicle: saline.
The mark [9] stands for this setting: dose: 100.0 mg/kg/injection, schedule: Q01DX009 (ip), vehicle: saline.
The mark [10] stands for this setting: dose: 200.0 mg/kg/injection, schedule: Q01DX009 (ip), vehicle: saline.
Setting [11] is: dose: 50.0 mg/kg/injection, schedule: Q01DX009 (ip), vehicle: Klucel (hydroxypropylcellulose) (HPC).
Where [12] appears, read: dose: 100.0 mg/kg/injection, schedule: Q01DX009 (ip), vehicle: Klucel (hydroxypropylcellulose) (HPC).
The mark [13] stands for this setting: dose: 200.0 mg/kg/injection, schedule: Q01DX009 (ip), vehicle: Klucel (hydroxypropylcellulose) (HPC).

Values joined by “and” are separate entries in the source; they are usually repeats but may differ in a detail not shown here. Equal values may be shown once. Inconclusive results and toxic doses are left out.

`OCC(O)COCCCCCCCCCCCC1C=CCC1` (configuration not stated): the T/C (dose: 100.0 mg/kg/injection, schedule: Q04DX003 (ip), vehicle: saline) is 99 % of control; the T/C (dose: 200.0 mg/kg/injection, schedule: Q04DX003 (ip), vehicle: saline) was 99 % of control; the T/C (dose: 400.0 mg/kg/injection, schedule: Q04DX003 (ip), vehicle: saline) was 99 % of control.
As to `CCC[N+]12CC=C3COC(=O)C(C)(O)C(C)(O)C(C)C(=O)OC(CC1)C32` (configuration not stated), the T/C reads like this: under setting [1], 100 % of control; under setting [2], 105 % of control; under setting [3], 98 % of control.
In the same order, the values of `c1ncc2n[pH]nc2n1` (configuration not stated) are 95 % of control, 101 % of control and 96 % of control.
Take `CCC(CC)N(C)C(C)(C)CO`: the T/C (dose: 50.0 mg/kg/injection, schedule: Q04DX003 (ip), vehicle: saline sonified) is 96 % of control and the T/C (dose: 100.0 mg/kg/injection, schedule: Q04DX003 (ip), vehicle: saline sonified) is 100 % of control.
In the case of `O=c1c2sc3ccccc3c2ncn1C1CCCCC1`, the T/C by setting is: under setting [4], 98 % of control; under setting [5], 100 % of control; under setting [6], 93 % of control.
`COc1cc(C2SCC(=O)N2c2nnc(C(F)(F)F)s2)cc(OC)c1OC` (configuration not stated): the T/C was 98 % of control (dose: 60.0 mg/kg/injection, schedule: Q01DX005 (ip), vehicle: saline with Tween-80) and 88 % of control (dose: 120.0 mg/kg/injection, schedule: Q01DX005 (ip), vehicle: saline with Tween-80).
For `CCC(O)C1(OC)C=CC(OC)O1` (configuration not stated), the T/C was 100 % of control (dose: 3.12 mg/kg/injection, schedule: Q01DX005 (ip), vehicle: saline); 97 % of control (dose: 6.25 mg/kg/injection, schedule: Q01DX005 (ip), vehicle: saline); 101 % of control (dose: 12.5 mg/kg/injection, schedule: Q01DX005 (ip), vehicle: saline).
For `COc1ccc2ccccc2c1C1=CC(c2ccccc2)C(C(=O)Cc2ccccc2)C(=O)N1` (configuration not stated), the T/C by setting is: (dose: 100.0 mg/kg/injection, schedule: Q04DX003 (ip), vehicle: saline with Tween-80) 101 % of control; (dose: 200.0 mg/kg/injection, schedule: Q04DX003 (ip), vehicle: saline with Tween-80) 92 % of control; (dose: 400.0 mg/kg/injection, schedule: Q04DX003 (ip), vehicle: saline with Tween-80) 101 % of control.
For `CN1C(=O)C(=O)N(C)C(=O)C1=O`, the T/C is, setting by setting: under setting [4], 100 % of control; under setting [5], 93 % of control; under setting [6], 103 % of control.
Take `O=Cc1ccc(N2OC(c3ccc([N+](=O)[O-])cc3)C(c3ccc([N+](=O)[O-])cc3)C2c2ccc([N+](=O)[O-])cc2)cc1` (configuration not stated): the T/C was 96 % of control (dose: 50.0 mg/kg/injection, schedule: Q01DX009 (ip), vehicle: acetone); 93 % of control (dose: 100.0 mg/kg/injection, schedule: Q01DX009 (ip), vehicle: acetone); 100 % of control (dose: 200.0 mg/kg/injection, schedule: Q01DX009 (ip), vehicle: acetone).
Regarding `CCOC(=O)/C=C(\Br)C(=O)OCC`, the T/C is, setting by setting: (dose: 3.15 mg/kg/injection, schedule: Q01DX009 (ip), vehicle: saline with Tween-80) 108 % of control; (dose: 6.25 mg/kg/injection, schedule: Q01DX009 (ip), vehicle: saline with Tween-80) 99 % of control; under setting [7], 119 % of control.
On to `O=C(O)C1CCCN1` (configuration not stated), for which the T/C is 98 % of control under setting [8], 100 % of control under setting [9] and 100 % of control under setting [10].
As for `COc1ccc(/C=C2\SC(=S)NC2=O)cc1OC`, the T/C runs as follows: under setting [11], 94 % of control; under setting [12], 92 % of control; under setting [13], 94 % of control; (dose: 400.0 mg/kg/injection, schedule: Q01DX009 (ip), vehicle: Klucel (hydroxypropylcellulose) (HPC)) 91 % of control.
As for `CCOc1cc2cc(CCO)c(C)cc2cn1`, the T/C is, setting by setting: (dose: 6.25 mg/kg/injection, schedule: Q01DX009 (ip), vehicle: distilled water + Tween-80) 110 % of control; (dose: 12.5 mg/kg/injection, schedule: Q01DX009 (ip), vehicle: distilled water + Tween-80) 108 % of control; (dose: 25.0 mg/kg/injection, schedule: Q01DX009 (ip), vehicle: distilled water + Tween-80) 94 % of control; (dose: 50.0 mg/kg/injection, schedule: Q01DX009 (ip), vehicle: distilled water + Tween-80) 94 % of control; (dose: 100.0 mg/kg/injection, schedule: Q01DX009 (ip), vehicle: distilled water + Tween-80) 100 % of control and 90 % of control; (dose: 200.0 mg/kg/injection, schedule: Q01DX009 (ip), vehicle: distilled water + Tween-80) 95 % of control. For the same molecule, the T/C (dose: 400.0 mg/kg/injection, schedule: Q01DX009 (ip), vehicle: distilled water + Tween-80) was 104 % of control.
Turning to `CC(=O)/C=C(\C)Nc1noc(-c2ccccc2)n1`, the T/C is, setting by setting: (dose: 4.38 mg/kg/injection, schedule: Q01DX005 (ip), vehicle: Klucel (hydroxypropylcellulose) (HPC)) 102 % of control; (dose: 8.75 mg/kg/injection, schedule: Q01DX005 (ip), vehicle: Klucel (hydroxypropylcellulose) (HPC)) 96 % of control; (dose: 17.5 mg/kg/injection, schedule: Q01DX005 (ip), vehicle: Klucel (hydroxypropylcellulose) (HPC)) 101 % of control.
Take `C[CH2][Sn]1([CH2]C)[O]OC(c2ccccc2)[O]1` (configuration not stated): the T/C reads like this: (dose: 1.56 mg/kg/injection, schedule: Q01DX009 (ip), vehicle: saline with Tween-80) 155 % of control; under setting [7], 173 % of control.
In the case of `O=C(O)CNc1ncnc2c1CCc1ccccc1-2`, the T/C is 100 % of control (dose: 100.0 mg/kg/injection, schedule: Q04DX002 (ip), vehicle: saline); 99 % of control (dose: 200.0 mg/kg/injection, schedule: Q04DX002 (ip), vehicle: saline); 91 % of control (dose: 400.0 mg/kg/injection, schedule: Q04DX002 (ip), vehicle: saline).
As for `O=C(NNc1ccccc1)NN(C(=O)Nc1cccc(Cl)c1)c1ccccc1`, the T/C runs as follows: under setting [4], 96 % of control; under setting [5], 104 % of control; under setting [6], 100 % of control.
For `CCN(c1ccccc1C(=O)O)S(=O)(=O)c1ccc(C)cc1`, the T/C under setting [4] was 104 % of control and the T/C under setting [5] is 106 % of control.
As for `COc1ccc(CSC(=S)Nc2cccc(C(F)(F)F)c2)cc1`, the T/C was 97 % of control under setting [8]; 90 % of control (dose: 50.0 mg/kg/injection, schedule: Q01DX009 (ip), vehicle: suspension in saline); 101 % of control under setting [9]; 118 % of control under setting [10]; 99 % of control (dose: 200.0 mg/kg/injection, schedule: Q01DX009 (ip), vehicle: suspension in saline).
Consider `C/C(CC(O)(c1ccccc1)c1ccccc1)=N\SC(c1ccccc1)(c1ccccc1)c1ccccc1`, for which the T/C by setting is: (dose: 100.0 mg/kg/injection, schedule: Q01DX001 (ip), vehicle: saline with Tween-80) 106 % of control; (dose: 200.0 mg/kg/injection, schedule: Q01DX001 (ip), vehicle: saline with Tween-80) 100 % of control; (dose: 400.0 mg/kg/injection, schedule: Q01DX001 (ip), vehicle: saline with Tween-80) 98 % of control.
In the case of `CN(C)NC(=S)SCCC(=O)O`, the T/C under setting [11] is 99 % of control, the T/C under setting [12] was 96 % of control and the T/C under setting [13] is 92 % of control.
With `CCOC(=O)C(CN1C(=O)c2ccccc2C1=O)(NC(C)=O)C(=O)OCC`, the T/C (dose: 25.0 mg/kg/injection, schedule: Q01DX009 (ip), vehicle: other) is 103 % of control; the T/C (dose: 50.0 mg/kg/injection, schedule: Q01DX009 (ip), vehicle: other) was 106 % of control; the T/C (dose: 100.0 mg/kg/injection, schedule: Q01DX009 (ip), vehicle: other) was 103 % of control; the T/C (dose: 200.0 mg/kg/injection, schedule: Q01DX009 (ip), vehicle: other) was 114 % of control; the T/C (dose: 400.0 mg/kg/injection, schedule: Q01DX009 (ip), vehicle: other) was 120 % of control.
Regarding `CC(NC(=O)OC(C)(C)C)C(=O)NC(C)C(=O)OCc1ccccc1` (configuration not stated), the T/C was 99 % of control (dose: 50.0 mg/kg/injection, schedule: Q01DX005 (ip), vehicle: saline with Tween-80); 89 % of control and 105 % of control (dose: 100.0 mg/kg/injection, schedule: Q01DX005 (ip), vehicle: saline with Tween-80); 92 % of control (dose: 200.0 mg/kg/injection, schedule: Q01DX005 (ip), vehicle: saline with Tween-80).
